The source made the active and inactive calls. Rule as the data show it: actives have a measured IC50 and inactives only a lower limit.
Target: Envelope glycoprotein gp160 (Human immunodeficiency virus 1, UniProt Q6QLK5)
Assay: inhibitors of HIV fusion peptide binding, primary screen, biochemical, uHTS, fluorescence dequenching (AID 1986)

Chain of Envelope glycoprotein gp160 (Q6QLK5 whole entry, the tested form may be a part): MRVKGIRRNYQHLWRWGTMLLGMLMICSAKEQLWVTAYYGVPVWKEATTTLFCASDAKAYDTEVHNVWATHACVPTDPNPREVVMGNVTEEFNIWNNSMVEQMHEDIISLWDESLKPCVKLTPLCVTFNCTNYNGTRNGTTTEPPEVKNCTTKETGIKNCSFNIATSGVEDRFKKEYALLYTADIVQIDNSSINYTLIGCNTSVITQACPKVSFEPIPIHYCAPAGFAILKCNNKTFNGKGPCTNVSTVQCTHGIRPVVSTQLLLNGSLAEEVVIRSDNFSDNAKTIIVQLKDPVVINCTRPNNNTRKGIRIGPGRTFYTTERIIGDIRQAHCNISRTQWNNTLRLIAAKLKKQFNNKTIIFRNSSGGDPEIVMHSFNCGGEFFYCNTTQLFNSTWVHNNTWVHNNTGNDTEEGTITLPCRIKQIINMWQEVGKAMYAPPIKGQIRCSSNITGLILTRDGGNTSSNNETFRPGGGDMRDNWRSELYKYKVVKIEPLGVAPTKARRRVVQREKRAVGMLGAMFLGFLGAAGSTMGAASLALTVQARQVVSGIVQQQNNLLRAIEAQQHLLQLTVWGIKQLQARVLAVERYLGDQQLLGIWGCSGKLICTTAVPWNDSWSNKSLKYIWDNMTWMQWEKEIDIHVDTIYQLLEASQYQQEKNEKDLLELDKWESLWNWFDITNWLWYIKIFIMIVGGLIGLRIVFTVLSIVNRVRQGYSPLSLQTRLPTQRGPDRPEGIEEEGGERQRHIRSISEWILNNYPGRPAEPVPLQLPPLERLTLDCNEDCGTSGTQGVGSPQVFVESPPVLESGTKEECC

**Q.** O=C(COc1ccc2ccccc2c1)Nc1cccc(C(=O)Nc2ccccc2C(=O)O)c1 was tested. Which IC50 did it give?
**A.** 14.3 µM (active)

**Q.** For CCOC(=O)c1sc(N2C(=O)C(O)=C(C(=O)c3ccco3)C2c2ccc([N+](=O)[O-])cc2)nc1C (stereo not given), which IC50 is on record?
**A.** 17.6 µM (active)

**Q.** For O=C(O)c1ccc(Nc2nc(-c3cc4ccccc4oc3=O)cs2)cc1O, which IC50 is on record?
**A.** 11.5 µM (active)

**Q.** For O=C(O)CCN1C(=O)/C(=C\c2cccc(OCC(=O)Nc3ccc(Cl)cc3)c2)SC1=S, which IC50 is on record?
**A.** 13.2 µM (active)

**Q.** Which IC50 does the source give for COc1ccccc1OCCOc1ccc(/C=C2\C(=N)N3N=C(S(C)(=O)=O)SC3=NC2=O)cc1 here?
**A.** 33.8 µM (active)
